From US20250129334A1, “LINEAGE SPECIFICATION DURING STEM CELL TRANSITION” (Amniotics AB, priority 2021, published 2025)

Experiments:
Type in all cases: cell-based, human
HE cells [1] = test: Single-cell RNAseq of treated HE cells at day 2 of subculture
Procedure: Sorted HE, EHT and HSC-like cells as well magnetically selected (Miltenyi Biotec) cord blood CD34^+ cells were plated onto Matrigel (16 μg/cm^2, Corning)-coated 96-well flat bottom plates in HE medium (Ditadi, A. & Sturgeon, C. M. Directed differentiation of definitive hemogenic endothelium and hematopoietic progenitors from human pluripotent stem cells. Methods 101, 65-72 (2016)) with 1% penicillin-streptomycin and kept in a humidified incubator at 37° C., 5% CO2, 4% O2 overnight. The following day (day 0), wells were washed twice with PBS and fresh HE medium was added, together with UK5099 (10 μM) or DCA (3 mM), where indicated. On day 1 and 2 (as indicated), cells were washed twice with PBS 0.04% UltraPure BSA and collected after a 2-minute incubation at 37° C. with StemPro Accutase Cell Dissociation Reagent. Cells were spun down, resuspended in PBS 0.04% UltraPure BSA, counted (yield between 8,000-18,000 cells) and library preparation was conducted according to the Chromium Single Cell 3′ Reagent kit v3 instructions (10× Genomics). Sequencing was performed on a NOVASeq 6000 from Illumina with the run parameters (28-8-0-91) recommended by 10× Genomics with a final loading concentration of 300 pM of the pooled libraries. Human Umbilical Cord Blood samples were collected from Skine University Hospital (Lund and Malmo) and Helsingborg Hospital with informed consents according to guidelines approved by the regional ethical committee.
The data was processed and analyzed using Seurat v3.1.0, where cells were allowed to have up to 20% mitochondrial reads prior to log-normalization and finding the top 500 variable genes using the “vst” method. Cell cycle scores were calculated and the data was scaled regressing on mitochondrial content and the difference of the S and G2M score. Principal components were calculated prior to calculating a UMAP. Pseudotime trajectories describing two developmental routes were identified in our EHT dataset using Slingshot (Street, K. et al. Slingshot: cell lineage and pseudotime inference for single-cell transcriptomics. BMC Genomics 19,477 (2018)) along which the cells were ordered. The cells were then binned along each trajectory where the cell type composition of each bin was calculated as percentages. Cord blood CD34+ cells were mapped to our data and labeled using scCoGAPS (Stein-O'Brien, G. L. et al. Decomposing Cell Identity for Transfer Learning across 23 Cellular Measurements, Platforms, Tissues, and Species. Cell Syst 8, 395-411.e8 (2019)). CS13 data from Zeng et al. (Zeng, Y. et al. Tracing the first hematopoietic stem cell generation in human embryo by single-cell RNA sequencing. Cell Res 1-14 (2019)) was read and processed to make a UMAP from which the cells they name as “AEC” and “Hem” were identified. These 99 cells were mapped to our data and labeled using SCMAP59. Carnegie Stage 13 data from Zeng et al. was mapped to our EHT dataset using scCoGAPS where 10 patterns were identified, named according to their respective weights (as shown in Table 1) and then projected using projectR. […] The CS 13 dorsal aorta dataset from Zeng et al. was mapped onto our EHT dataset using scCoGAPS. The patterns resulting from this analysis were classified as the cell types described by Zeng et al.
Each cell was assigned to the group that achieved the highest weight. […]

HE cells [2] = test: Single HE cell clone assay on OP9-DL1 stroma; details: day 14; total of 552 single cells per condition
Procedure: Sorted HE (40,000), EHT (30,000) and HSC-like (5-20,000) cells were plated onto Matrigel (16 μg/cm2, Corning)-coated 96-well flat bottom plates in HE medium with 1% penicillin-streptomycin and kept in a humidified incubator at 37° C., 5% C02, 4% 02 overnight. The following day (day 0), wells were washed twice with PBS and fresh HE medium was added, together with 2-DG (1 mM), UK5099 (10 μM), DCA (3 mM or 10 mM), TSA (60 nM), TCP (300 nM), ACSS2i (5 μM), C646 (10 μM), CP-640186 (5 μM) or Atorvastatin (0.5 μM), where indicated. Media was changed and drugs were added every 2 days and cells were kept in a humidified incubator at 37° C., 5% CO2, 20% O2 for 6-7 days. Pictures were taken using an Olympus IX70 microscope equipped with a CellSens DP72 camera and CellSens Standard 1.6 software (Olympus). For single cell subcultures, single HE cells were directly sorted with a BD FACSAriaIII onto OP9-DL1 stroma in flat-bottom 96-well plates with 120 μl OP9 medium (OptiMEM medium with Glutamax (Invitrogen) with 10% FCS, 1% penicillin-streptomycin solution (Thermo Fisher Scientific) and 1% 2-mercaptoethanol (Invitrogen)) with SCF, IL-6, IL-11, IGF1 and EPO, and with or without 10 μM UK, or 3 mM or 10 mM DCA. […] At day 14, the wells were collected and scored for GPA+ clones by flow cytometry, using a BD LSRII.

HE cells [3] = test: Lymphoid (NK) differentiation assay on OP9-DL1 stroma; details: 3-day treatment, 35-day co-culture; UK5099 10 μM, DCA 3 mM
Procedure: Subculture day 3 HE cells cultured in the presence of UK5099 (10 μM) or DCA (3 mM or 10 mM), as indicated, were collected after a 2-minute incubation at 37° C. with StemPro Accutase Cell Dissociation Reagent and seeded onto 80% confluent OP9-DL1 stroma. Cells were cultured in OP9 medium (OptiMEM medium with Glutamax (Invitrogen) with 10% FCS, 1% penicillin-streptomycin solution (Thermo Fisher Scientific) and 1% 2-mercaptoethanol (Invitrogen)) with SCF (10 ng/ml), FLT3-L (10 ng/ml), IL-2 (5 ng/ml), IL-7 (5 ng/ml, first 15 days only) and IL-15 (10 ng/ml) with passaging onto new OP9-DL1 stroma every week, as described previously (Renoux, V. M. et al. Identification of a Human Natural Killer Cell Lineage-Restricted Progenitor in Fetal and Adult Tissues. Immunity 43, 394-407 (2015)). At day 35 of co-culture, cells were analyzed on a BD LSRFortessa.

Compound | less treated HE cells in cluster 7 compared to the control (HE cells [1]; day 2, DCA 3 mM) [%] | GPA+ clones (HE cells [2]) [clones] | LSD1, GFI1 and GFI1B expression (HE cells [1]; as compared to DCA-treated cells) | average expression levels of erythroid lineage genes (RYK, KLF3, TAL1, GATA2, ZFPM1, KLF1, NFE2, ANK1, HBQ1) (HE cells [1]; clusters 6 and 7) | percentage of cells in cluster 6 (HE cells [1]; day 2) | more treated HE cells in cluster 7 compared to the control (HE cells [1]; day 2, UK5099 10 μM) [%] | NK cell differentiation (CD45+CD56+ cells) (HE cells [3])
O=C(O)C(Cl)Cl [DCA, dichloroacetate] | 35 | 7 |  |  |  |  | 
N#CC(=Cc1cn(-c2ccccc2)c2ccccc12)C(=O)O [UK5099, 2-Cyano-3-(1-phenyl-1H-indol-3-yl)-2-propenoic acid] |  | 12 | higher levels | higher | constant between conditions | 38 | impaired NK cell formation
